Experimental data published in US20220047545A1 (priority 2020, published 2022).

What follows are molecules tested against RBD of SARS-CoV-2 spike protein binding to hACE2 receptor (Severe acute respiratory syndrome coronavirus 2, UniProt P0DTC2).

| SMILES | Binding with RBD (% of control ± SD) | enhancement of blocking the RBD binding by Formula 1 when micronutrient tested individually |
| --- | --- | --- |
| O=C1O[C@H]2[C@@H]3OC(=O)c4cc(O)c(O)c(O)c4-c4c(O)c(O)c5oc(=O)c6c(c(O)c(O)c7oc(=O)c4c5c76)-c4c(cc(O)c(O)c4O)C(=O)OC[C@H]3OC(O)[C@@H]2OC(=O)c2cc(O)c(O)c(O)c2-c2c1cc(O)c(O)c2O (mixture of isomers) [Punicalagin] | 32.3 ± 5.9 % of control | – |
| O=C(OC1Cc2c(O)cc(O)cc2OC1c1cc(O)c(O)c(O)c1)c1cc(O)c(O)c(O)c1 (single isomer, unassigned; (+)) [(+)-epigallocatechin gallate] | 87.5 ± 6.8 % of control | – |
| Oc1cc(O)c2c(c1)O[C@H](c1cc(O)c(O)c(O)c1)[C@@H](O)C2 [(+)-gallocatechin] | 69.5 ± 2.8 % of control | – |
| O=C(O[C@@H]1Cc2c(O)cc(O)cc2O[C@H]1c1ccc(O)c(O)c1)c1cc(O)c(O)c(O)c1 [(−)-catechin gallate] | 37.4 ± 4.7 % of control | – |
| Oc1cc(O)c2c(c1)O[C@@H](c1cc(O)c(O)c(O)c1)[C@H](O)C2 [(−)-gallocatechin] | 73.5 ± 6.7 % of control | – |
| C=C1CC[C@@H]2[C@](C)(CO)[C@H](O)CC[C@@]2(C)[C@@H]1C/C=C1/C(=O)OC[C@H]1O [Andrographolide] | 22.1 ± 2.5 % of control | – |
| O=c1cc(-c2ccc(O)cc2)oc2cc(O)cc(O)c12 [Apigenin] | 17.1 ± 4.1 % of control | – |
| O=c1cc(-c2ccccc2)oc2cc(O)c(O)c(O)c12 [Baicalein] | 22.5 ± 5.1 % of control | – |
| O=C(O)[C@H]1O[C@@H](Oc2cc3oc(-c4ccccc4)cc(=O)c3c(O)c2O)[C@H](O)[C@@H](O)[C@@H]1O [Baicalin] | 10.3 ± 2.9 % of control | only minimal enhancement |
| COc1ccc2cc3[n+](cc2c1OC)CCc1cc2c(cc1-3)OCO2 [Berberine] | 17.3 ± 2.7 % of control | – |
| C=C(C)[C@@H]1CCC(C)=C[C@H]1c1c(O)cc(CCCCC)cc1O [Cannabidiol, reference compound] | 1.4 ± 0.3 % of control | – |
| CC(C)c1cc2c(c(O)c1O)[C@@]1(C(=O)O)CCCC(C)(C)[C@@H]1CC2 [Carnosic acid] | 27.1 ± 5.1 % of control | – |
| O[C@H]1[C@H](O)[C@@H](O)CN2CC[C@H](O)[C@H]12 [Castanospermine] | 8.2 ± 2.3 % of control | – |
| O=C(/C=C/c1ccc(O)c(O)c1)O[C@@H]1C[C@](O)(C(=O)O)C[C@@H](O)[C@H]1O [Chlorogenic acid] | 25.5 ± 2.5 % of control | – |
| C=C(C)[C@H]1CC=C(C)CC1 [D-limonene] | 27.2 ± 6.4 % of control | – |
| O=c1c(O)c(-c2ccc(O)c(O)c2)oc2cc(O)ccc12 [Fisetin] | 22.4 ± 1.9 % of control | – |
| O=C(O)c1cc(O)c(O)c(O)c1 [Gallic acid] | 18.3 ± 4.5 % of control | – |
| O=c1c(-c2ccc(O)cc2)coc2cc(O)cc(O)c12 [Genistein] | 22.1 ± 2.8 % of control | – |
| COc1ccc([C@@H]2CC(=O)c3c(O)cc(O)cc3O2)cc1O [Hesperetin] | 42.5 ± 4.6 % of control | – |
| COc1ccc([C@@H]2CC(=O)c3c(O)cc(O[C@@H]4O[C@H](CO[C@@H]5O[C@@H](C)[C@H](O)[C@@H](O)[C@H]5O)[C@@H](O)[C@H](O)[C@H]4O)cc3O2)cc1O [Hesperidin] | 90.3 ± 3.8 % of control | only minimal enhancement |
| COc1c(O)cc2oc(-c3ccc(O)cc3)cc(=O)c2c1O [Hispidulin] | 20.1 ± 6.0 % of control | – |

| SMILES | Binding with RBD (% of control ± SD) | enhancement of blocking the RBD binding by Formula 1 when micronutrient tested individually |
| --- | --- | --- |
| O=c1c(O)c(-c2ccc(O)cc2)oc2cc(O)cc(O)c12 [Kaemferol] | 15.6 ± 2.9 % of control | – |
| C[S+]([O-])CCCCN=C=S [L-sulforaphane] | 30.2 ± 3.6 % of control | – |
| O=c1cc(-c2ccc(O)c(O)c2)oc2cc(O)cc(O)c12 [Luteolin] | 10.4 ± 4.7 % of control | only minimal enhancement |
| O=C(O)CC(O)C(=O)O (centres unmarked) [Malic acid] | 1.2 ± 3.7 % of control | – |
| O=c1c(O)c(-c2ccc(O)cc2O)oc2cc(O)cc(O)c12 [Morin] | 30.5 ± 5.8 % of control | – |
| O=c1c(O)c(-c2cc(O)c(O)c(O)c2)oc2cc(O)cc(O)c12 [Myricetin] | 45.5 ± 5.4 % of control | – |
| O=C1C[C@@H](c2ccc(O)cc2)Oc2cc(O)cc(O)c21 [Naringenin] | 20 ± 5.1 % of control | – |
| C[C@@H]1O[C@@H](O[C@H]2[C@H](Oc3cc(O)c4c(c3)O[C@H](c3ccc(O)cc3)CC4=O)O[C@H](CO)[C@@H](O)[C@@H]2O)[C@H](O)[C@H](O)[C@H]1O [Naringin] | 23.6 ± 6.4 % of control | – |
| COc1cc2c(cc1OC)-c1cc3ccc(OC)c(OC)c3c[n+]1CC2 [Palmatine] | 40.4 ± 6.1 % of control | – |
| COc1ccc(Cc2nccc3cc(OC)c(OC)cc23)cc1OC [Papaverine, reference compound] | 1.6 ± 0.2 % of control | – |
| Oc1cc(O)cc(O)c1 [Phloroglucinol] | 69.5 ± 3.6 % of control | – |
| Oc1cc(O)c2c(c1)O[C@H](c1ccc(O)c(O)c1)[C@H](O)[C@H]2c1c(O)cc(O)c2c1O[C@H](c1ccc(O)c(O)c1)[C@H](O)C2 [Procyanidin B2] | 31.1 ± 3.6 % of control | – |
| Oc1cc(O)c2c(c1)O[C@H](c1ccc(O)c(O)c1)[C@@H](O)[C@@H]2c1c(O)cc(O)c2c1O[C@H](c1ccc(O)c(O)c1)[C@@H](O)C2 [Procyanidin B3] | 32.3 ± 3.7 % of control | – |
| COc1cc(/C=C/c2ccc(O)cc2)cc(OC)c1 [Pterostillbene] | 23.1 ± 2.8 % of control | – |
| O=c1c(O)c(-c2ccc(O)c(O)c2)oc2cc(O)cc(O)c12 [Quercetin] | 22.4 ± 6.5 % of control | – |
| O=C(/C=C/c1ccc(O)c(O)c1)O[C@H](Cc1ccc(O)c(O)c1)C(=O)O [Rosmarinic acid] | 22.5 ± 3.8 % of control | – |
| C[C@@H]1O[C@@H](OC[C@H]2O[C@@H](Oc3c(-c4ccc(O)c(O)c4)oc4cc(O)cc(O)c4c3=O)[C@H](O)[C@@H](O)[C@@H]2O)[C@H](O)[C@H](O)[C@H]1O [Rutin] | 20.6 ± 6.3 % of control | – |
| O=C(O)[C@H]1O[C@@H](Oc2cc3oc(-c4ccc(O)cc4)cc(=O)c3c(O)c2O)[C@H](O)[C@@H](O)[C@@H]1O [Scutellarin] | 8.1 ± 3.7 % of control | – |
| O=C(OC[C@H]1O[C@@H](OC(=O)c2cc(O)c(O)c(OC(=O)c3cc(O)c(O)c(O)c3)c2)[C@H](OC(=O)c2cc(O)c(O)c(OC(=O)c3cc(O)c(O)c(O)c3)c2)[C@@H](OC(=O)c2cc(O)c(O)c(OC(=O)c3cc(O)c(O)c(O)c3)c2)[C@@H]1OC(=O)c1cc(O)c(O)c(OC(=O)c2cc(O)c(O)c(O)c2)c1)c1cc(O)c(O)c(OC(=O)c2cc(O)c(O)c(O)c2)c1 [Tannic acid] | 79.4 ± 2.3 % of control | – |
| O=c1c(O)cc([C@H]2Oc3cc(O)cc(O)c3C[C@H]2O)cc2c([C@H]3Oc4cc(O)cc(O)c4C[C@H]3O)cc(O)c(O)c12 [Theaflavin] | 27.3 ± 1.4 % of control | – |
